The source made the active and inactive calls.
Tests used:
[1] = MITF Measured in Cell-Based System Using Plate Reader - 2084-01_Inhibitor_Dose_DryPowder_Activity_Set7.; assay type: functional
[2] = A375 melanoma cell viability loss, dose response, counter-screen for MITF inhibitor project, CellTiter-Glo luminescence, dry powder, set 4 (AID 624364); assay type: functional, cell-based; conditions: A-375;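 further: A375 melanoma cells are MITF independent so this is a counter screen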
[3] = A375 melanoma cell cytotoxicity, dose response, counter-screen for MITF inhibitor project, CellTiter-Glo luminescence, dry powder, set 2 (AID 624489); assay type: functional, cell-based; conditions: A-375;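 further: actives are compounds lowering A375 viability meaning general cytotoxicity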
[4] = cytotoxicity in primary human melanocytes, dose response, cytotoxicity control, cell-based, plate reader, dry powder (AID 651920); assay type: functional
[5] = MITF Orthogonal Assay: MALME3 CTG Assay Measured in Cell-Based System Using Plate Reader - 2084-04_Inhibitor_Dose_DryPowder_Activity_Set6.; assay type: functional; conditions: MALME-3
[6] = SK-MEL-5 parental line viability, dose response, MITF inhibitor project, cell-based, CellTiter-Glo, dry powder, set 6 (AID 624429); assay type: functional
[7] = MITF Measured in Cell-Based System Using Plate Reader - 2084-01_Inhibitor_Dose_DryPowder_Activity_Set6.; assay type: functional
[8] = SK-MEL-5 parental cell viability reduction, dose response, orthogonal assay for MITF inhibitor project, CellTiter-Glo luminescence, dry powder, set 8 (AID 651586); assay type: functional, cell-based
[9] = A375 melanoma cell cytotoxicity, dose response, counter-screen for MITF inhibitor project, CellTiter-Glo luminescence, dry powder, set 6 (AID 624488); assay type: functional, cell-based; conditions: A-375
[10] = MITF Orthogonal Assay: SK-MEL-5 CTG Assay Measured in Cell-Based System Using Plate Reader - 2084-02_Inhibitor_Dose_DryPowder_Activity_Set5.; assay type: functional
[11] = A375 melanoma cell viability loss, dose response, counter-screen for MITF modulator project, CellTiter-Glo luminescence, dry powder, set 9 (AID 651591); assay type: functional, cell-based; conditions: A-375
[12] = TRPM1 promoter luciferase reporter signal decrease, dose response, MITF inhibitor project, cell-based, SK-MEL-5, dry powder, set 9 (AID 651588); assay type: functional
[13] = A375 melanoma cell cytotoxicity, dose response, counter-screen for MITF inhibitor project, CellTiter-Glo luminescence, dry powder, set 7 (AID 624490); assay type: functional, cell-based; conditions: A-375
[14] = MALME3 melanoma cell viability reduction, dose response, orthogonal assay for MITF inhibitor project, CellTiter-Glo luminescence, dry powder, set 5 (AID 651584); assay type: functional, cell-based; conditions: MALME-3
[15] = target: T1, Streptokinase A (Streptococcus pyogenes serotype M1, UniProt P10520); assay: S. pyogenes streptokinase expression inhibitors, potency, dose response, plasminogen activation absorbance, OD405 (AID 1914); assay type: functional, Streptococcus pyogenes M1 GAS;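 further: secreted streptokinase activity via plasminogen activation per viability signal from cell pellet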
T1 sequence (P10520 whole entry): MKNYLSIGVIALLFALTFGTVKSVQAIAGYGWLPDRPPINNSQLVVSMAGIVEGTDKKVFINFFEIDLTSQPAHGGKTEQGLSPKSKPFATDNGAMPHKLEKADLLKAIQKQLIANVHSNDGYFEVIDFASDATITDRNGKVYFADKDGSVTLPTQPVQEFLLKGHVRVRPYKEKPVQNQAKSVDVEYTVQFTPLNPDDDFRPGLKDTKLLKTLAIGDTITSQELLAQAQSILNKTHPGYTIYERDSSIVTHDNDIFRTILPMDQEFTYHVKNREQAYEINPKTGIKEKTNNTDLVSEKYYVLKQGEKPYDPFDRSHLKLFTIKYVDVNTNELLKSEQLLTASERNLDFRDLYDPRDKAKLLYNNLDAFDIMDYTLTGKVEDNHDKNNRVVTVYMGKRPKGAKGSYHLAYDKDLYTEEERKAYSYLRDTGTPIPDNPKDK

[16] = test system: Streptococcus sp. 'group A'; assay: growth inhibition of control SK(-) GAS strain, dose response, counter-screen for streptokinase expression inhibitor project, luminescence, kanamycin, BacTiterGlo, confirmation (AID 1900); assay type: functional, organism-based
[17] = test system: Streptococcus; assay: Group A Streptococcus viability loss, dose response, counter-screen for streptokinase expression inhibitor project, luminescence, BacTiterGlo (AID 1915); assay type: functional, organism-based;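 further: potency for reduction of bacterial viability or growth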
[18] = Late stage results for the probe development effort to identify inhibitors of Plasmodium falciparum gametocytes: Luminescence-based cell-based high throughput dose response assay to identify inhibitors of viability of late stage Plasmodium falciparum gametocytes.; assay type: functional
[19] = HEK293 Cytotoxicity Assay Measured in Cell-Based System Using Plate Reader - 7071-01_Inhibitor_Dose_CherryPick_Activity_Set2.; assay type: functional
[20] = test system: HEK293; assay: HEK293T cell cytotoxicity, dose response, cytotoxicity control, ATP luminescence, cherry-pick samples (AID 687005); assay type: functional, cell-based; conditions: Homo sapiens;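 further: cells exposed to compound for 48 hours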
[21] = HEK293T cell cytotoxicity, dose response, cytotoxicity control, CellTiter-Glo luminescence, dry powder, set 6 (AID 651949); assay type: functional, cell-based; conditions: HEK293
[22] = target: Glucose-6-phosphate 1-dehydrogenase (Homo sapiens, UniProt P11413); assay: human G6PD enzyme inhibitors, dose response, selectivity assay for P. falciparum G6PD inhibitor project, biochemical, fluorescence (AID 504792); assay type: functional
[23] = target: T2, Oxysterols receptor LXR-beta (Homo sapiens, UniProt P55055); assay: LXR agonists, Gal4 luciferase reporter, dose response, counter-screen for ssDAF-12 agonist project, cell-based, luminescence, HEK293, S. stercoralis campaign (AID 720737); assay type: functional; conditions: read-out: IC50 (the source's name)
T2 sequence (P55055 whole entry): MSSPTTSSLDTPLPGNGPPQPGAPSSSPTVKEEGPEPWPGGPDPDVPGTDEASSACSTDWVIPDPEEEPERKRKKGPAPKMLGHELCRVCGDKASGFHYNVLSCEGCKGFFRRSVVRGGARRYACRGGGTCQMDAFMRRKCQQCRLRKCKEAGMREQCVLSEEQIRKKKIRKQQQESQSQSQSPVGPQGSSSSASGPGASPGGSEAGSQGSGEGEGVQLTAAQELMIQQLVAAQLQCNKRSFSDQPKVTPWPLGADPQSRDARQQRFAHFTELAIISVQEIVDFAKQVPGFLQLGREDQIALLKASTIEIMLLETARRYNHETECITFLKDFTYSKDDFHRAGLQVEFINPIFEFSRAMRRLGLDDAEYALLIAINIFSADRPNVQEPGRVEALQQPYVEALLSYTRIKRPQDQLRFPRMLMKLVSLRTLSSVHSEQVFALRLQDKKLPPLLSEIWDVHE

[24] = Luminescence-based cell-based high throughput dose response assay to identify activators of the DAF-12 from the parasite S. stercoralis (ssDAF-12).; assay type: functional
[25] = test system: HEK293; assay: cells; assay type: functional, cell-based; conditions: Homo sapiens
[26] = reduction of Shn3 3'UTR firefly luciferase signal, dose response, Schnurri-3 inhibitor project, cell-based, Clone20 osteoblasts, cherry-pick, set 2 (AID 720490); assay type: functional;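 further: actives lower the luminescence signal as inhibitors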
[27] = cytotoxicity in MIN6 insulinoma cells, dose response, cytotoxicity control, cell-based, mouse insulinoma (AID 2122); assay type: functional;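 further: confirmatory high-throughput counterscreen run to flag cytotoxic compounds; mouse MIN-6 beta cells carrying an insulin promoter eGFP reporter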
[28] = control 3'UTR Renilla luciferase suppression, dose response, counter-screen for Shn3 inhibitor project, cell-based, Clone20-Shn3RL, cherry-picked (AID 624133); assay type: functional
[29] = test system: HEK293; assay: NOD1 signaling inhibitors, primary screen, cell-based, luminescence, uHTS (AID 1578); assay type: functional; conditions: Homo sapiens
[30] = test system: HEK293; assay: cells; assay type: functional, cell-based; conditions: Homo sapiens; remark: listed apart in the source
[31] = insulin promoter down-regulators in MIN6 cells, imaging, high-content screening, mouse beta cells (AID 1628); assay type: functional
[32] = test system: HEK293; assay: NOD2 signaling inhibitors in MDP-stimulated cells, cell-based, uHTS, luminescence (AID 2001); assay type: functional; conditions: Homo sapiens
[33] = HepG2 cell cytotoxicity, dose response, cytotoxicity control for Shn3 inhibitor project, CellTiter-Glo, cherry-picked (AID 624134); assay type: functional, cell-based
[34] = Shn3 3'UTR reporter inhibitors, dose response, cell-based, Clone20 osteoblasts, firefly luciferase, cherry-picked (AID 624132); assay type: functional;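 further: firefly luciferase luminescence from reporter carrying the Shn3 3'UTR in osteoblasts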
[35] = test system: INS1; assay: beta cell apoptosis inhibitors, cytokine rescue, dose response, luminescence, retest (AID 449756); assay type: functional, cell-based; conditions: Rattus norvegicus;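 further: cell death triggered by IL-1 beta plus TNF-alpha plus IFN-gamma mixture; protective hits raise ATP signal compared with cytokine alone wells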
[36] = target: NAD-dependent protein deacylase sirtuin-5, mitochondrial (Homo sapiens, UniProt Q9NXA8); assay: SIRT5 desuccinylase inhibitors, dose response, biochemical, fluorescence imaging, cherry-pick, set 5 (AID 720591);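 further: desuccinylation of succinyl peptide AMC substrate read as fluorescence after trypsin release; potency of inhibitors that lower fluorescence and may act on trypsin instead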
NAD-dependent protein deacylase sirtuin-5, mitochondrial, sequence (Q9NXA8 whole entry): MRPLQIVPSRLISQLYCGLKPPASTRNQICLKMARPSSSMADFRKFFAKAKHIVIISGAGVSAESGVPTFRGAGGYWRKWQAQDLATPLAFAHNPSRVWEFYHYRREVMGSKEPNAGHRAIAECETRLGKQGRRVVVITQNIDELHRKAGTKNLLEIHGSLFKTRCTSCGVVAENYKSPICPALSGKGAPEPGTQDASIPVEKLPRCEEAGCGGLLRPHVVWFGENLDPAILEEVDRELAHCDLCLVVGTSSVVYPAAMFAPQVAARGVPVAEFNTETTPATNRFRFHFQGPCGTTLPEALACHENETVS

Glucose-6-phosphate 1-dehydrogenase, sequence (P11413 whole entry, the tested form may be a part): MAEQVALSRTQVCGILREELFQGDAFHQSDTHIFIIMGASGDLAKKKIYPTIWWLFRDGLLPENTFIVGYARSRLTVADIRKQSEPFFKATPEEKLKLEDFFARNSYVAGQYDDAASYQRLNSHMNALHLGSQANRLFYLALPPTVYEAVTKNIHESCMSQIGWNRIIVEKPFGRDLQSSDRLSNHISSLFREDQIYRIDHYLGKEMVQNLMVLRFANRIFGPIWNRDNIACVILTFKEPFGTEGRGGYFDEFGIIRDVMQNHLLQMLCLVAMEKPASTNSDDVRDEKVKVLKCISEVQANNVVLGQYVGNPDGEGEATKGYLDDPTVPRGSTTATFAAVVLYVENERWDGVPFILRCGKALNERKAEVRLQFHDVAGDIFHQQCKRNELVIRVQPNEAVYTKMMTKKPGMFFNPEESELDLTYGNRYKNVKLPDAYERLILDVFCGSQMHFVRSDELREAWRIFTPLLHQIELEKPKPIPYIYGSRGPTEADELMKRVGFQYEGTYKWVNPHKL

NC1=CC(=O)c2ccccc2C1=O
AC50 [1]: 1.28 µM (active)
AC50 [2]: > 70 µM (inactive)
AC50 [3]: 65.7 µM (active)
AC50 [4]: 25.1 µM (active)
AC50 [5]: 9.48 µM (active)
AC50 [6]: 6.75 µM (active)
AC50 [7]: 4.14 µM (active)
AC50 [8]: 8.76 µM (active)
AC50 [9]: 56.9 µM (active)
AC50 [10]: 5.13 µM (active)
AC50 [11]: > 70 µM (inactive)
AC50 [12]: 12.1 µM (active)
AC50 [13]: 45.7 µM (active)
AC50 [14]: 9.48 µM (active)

O=C(NC1=NCCS1)c1cc(-c2ccccc2)nn1-c1ccccc1
EC50 [15]: 34.2 µM (active)
EC50 [16]: > 150 µM (not active)
EC50 [17]: > 150 µM (not active)
IC50 [18]: > 37.2 µM (inactive)

COc1ccccc1CNC(=O)C[C@@H]1C[C@H]2c3cc(NC(=O)Nc4ccccc4F)ccc3O[C@H]2[C@@H](CO)O1
AC50 [19]: 26.6 µM (active)
AC50 [20]: 26.6 µM (active)

COc1ccc(CSc2nnc(-c3ccccc3)o2)cc1
AC50 [21]: > 52 µM (inactive)

COc1ccc(C(=O)/C=C2\Sc3ccccc3N2C)cc1
IC50 [22]: > 80 µM (inactive)
EC50 [23]: > 67.6 µM (inactive)
IC50 [24]: > 67.6 µM (inactive)

O=C(c1cc(COc2ccc3ncccc3c2)on1)N1CCCCCC1
IC50 [25]: 5.76 µM (active)
AC50 [26]: 3.57 µM (active)
IC50 [27]: 1.13 µM (active)
AC50 [28]: 23.4 µM (active)
EC50 [29]: 1.85 µM (active)
IC50 [30]: > 20 µM (inactive)
IC50 [31]: 1.86 µM (active)
IC50 [32]: 13.2 µM (inactive)
AC50 [33]: 43.6 µM (active)
AC50 [34]: 0.703 µM (active)
AC50 [35]: 5.88 µM (active)

COc1ccc(NC(=O)c2cccnc2N2CCCC2)cc1
AC50 [36]: > 30 µM (inactive)
